Test system: human induced pluripotent stem cell-derived cardiomyocytes (iPS-CMs)
Experiment: simultaneous field potential (MEA), impedance (IDE) and optical recording of cardiac tissue pre-/post-drug exposure and after wash-out
Type: cell-based
Excerpt: Measurements were repeated once more after washing the culture to flush the blebbistatin from the system. FIGS. 7A-7C show the field potential (left) and corresponding impedance changes (right) prior to exposure to blebbistatin (FIG. 7A), after exposure to blebbistatin (FIG. 7B) and following flushing of blebbistatin from the system (FIG. 7C).
Prior to compound addition, the tissue beat spontaneously and rhythmically at a rate of 14 bpm, as shown from both the FP profile and impedance profile of FIG. 7A.
Human iPS-CMs were purchased from Cellular Dynamics International (Madison, Wis.). Cells were stored in liquid nitrogen before use. Prior to cell seeding, device culture chambers were sterilized with 70% ethanol, rinsed with autoclaved water, then incubated overnight with 40 μg/mL fibronectin (Sigma-Aldrich, St Louis, Mo.) at 37° C. Cells were seeded at a density of 120K cells/cm2 and kept in an incubator at 37° C. and 5% CO2. Media was exchanged 4 hrs after seeding, then every 48 hours subsequently.
The MEA was connected via electrical connector(s), preferably OMNETICS™ connectors to an AlphaLab SnR multi-channel recording system (Alpha Omega, Alpharetta, Ga.) to record voltages as a function of time across all 16 electrodes of the MEA. Offline analysis of temporal differences between the 16 electrodes when voltage spikes occur generates an activation map. The activation map illustrates FP spatial propagation in the cardiac tissue monolayer across the surface area of the device.
For measuring cardiac contraction, high-speed impedance time recording was performed using a Keysight E4990A Impedance Analyzer (Keysight Technologies Inc., Santa Rosa, Calif.) and controlled using custom LabVIEW software (National Instruments, Austin, Tex.). For each device, impedance was measured at multiple frequencies between 5 kHz and 200 kHz to determine the frequency range that gives the highest signal-to-noise ratio.
Norepinephrine and blebbistatin were purchased from Sigma-Aldrich (St Louis, Mo., USA). Both drugs were dissolved in 0.1% dimethyl sulfoxide and stored at −20° C. Drugs were diluted to desired concentrations in cell media immediately before use. Prior to drug exposure, pre-drug electrophysiology and contraction data of the cardiac tissues on a device were collected for five minutes. Next, cell media was removed from the chamber on the device, drug was added and device was incubated at 37° C. and 5% CO2 for 15 minutes. Recording was again started with the drug. Afterwards, the drug solution was removed and the culture chamber was rinsed three times with cell media, incubated at 37° C. and 5% CO2 for another 15 minutes before performing drug wash-out measurements.

[1] = after incubation with 10 μM, FIG. 7B

Cc1ccc2c(c1)C(=O)C1(O)CCN(c3ccccc3)C1=N2 (stereo not shown) [blebbistatin]
action potential pattern (MEA data) [1]: not affected
impedance recording (contraction signal, IDE) [1]: flat baseline signal
tissue contraction observed under an optical microscope (after incubation with 10 μM, pre-drug spontaneous beating at 14 bpm, FIG. 7B): static
tissue contractility after washing out (impedance peaks and optical observation) (wash-out after 10 μM exposure, FIG. 7C): restored the tissue contractility
